Measured values reported in patent US10426751B2, “Allosteric activators for treatment of phenylketonuria” (MCMASTER UNIVERSITY, priority 2015, dated 2019).
Where a chain is given by its changes, count along the chain named. pKi: −log10 of the molar value.

Legend:
I65T PAH mutant = biological target: T1, I65T PAH mutant (Homo sapiens, UniProt P00439, I65T); assay: PKU-mutant activity enhancement without chemical denaturants, CE-UV; type: biochemical; details: ligand 20 μM, no denaturant
T1 construct: made in house; the paragraph itself says 'eukaryotic cell cultures' (pMAL vector)
T1 sequence (P00439 1-452 I65T): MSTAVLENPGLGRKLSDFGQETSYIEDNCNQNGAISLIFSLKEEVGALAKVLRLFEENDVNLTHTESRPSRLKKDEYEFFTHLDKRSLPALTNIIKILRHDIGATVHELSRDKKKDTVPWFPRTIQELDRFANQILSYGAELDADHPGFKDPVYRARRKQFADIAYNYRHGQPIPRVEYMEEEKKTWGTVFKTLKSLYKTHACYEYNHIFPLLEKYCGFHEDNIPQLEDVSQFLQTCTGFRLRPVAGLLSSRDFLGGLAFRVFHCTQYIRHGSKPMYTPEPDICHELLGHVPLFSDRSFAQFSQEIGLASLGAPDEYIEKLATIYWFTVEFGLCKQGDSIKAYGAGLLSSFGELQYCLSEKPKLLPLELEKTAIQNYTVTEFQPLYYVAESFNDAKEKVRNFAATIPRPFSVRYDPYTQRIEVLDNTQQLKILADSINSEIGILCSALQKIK
Description: (§1) Expression of recombinant human WT-PAH and two PAH mutants ([…]) as fusion protein with maltose-binding protein in […] using pMAL expression vector was performed by the Martinez laboratory at the University of Bergen as described in Svebak et al., Biochem. J., 1995, 306, 589-597. Briefly, purification of the fusion proteins expressed in the pMAL vector system was performed using affinity chromatography followed by size-exclusion chromatography to remove low molecular weight components. Subsequently, the fusion proteins were cleaved by the restriction protease factor Xa and then phosphorylated by cyclic adenosine monophosphate (cAMP)-dependent protein kinase. The two clinically relevant PAH mutants, I65T and R261Q comprise single-point mutations in the regulatory and catalytic domain, respectively which are associated with highly variable phenotypes ranging from mild to classical PKU. For instance, patients with R261Q genotypes are reported to have inconsistent responses to BH4 therapy. In this work, I65T and R261Q PAH mutants were measured to have residual catalytic activities of (35±1)% and (5±0.5)% relative to WT PAH under standardized conditions (i.e., enzyme concentrations, assay buffer etc.), respectively. Stock solutions of WT-PAH and PAH mutants were prepared in enzyme reaction buffer (20 mM HEPES pH 7.0, 200 mM NaCl), and divided into separate 10 μL aliquots in 0.5 mL sterilized centrifuge tubes prior to storage at −80° C. Note that all enzyme assays were performed on aliquots of frozen enzymes thawed slowly in the fridge prior to daily use.
(§2) Tetrameric human phenylalanine hydroxylase (PAH) enzyme kinetic assays were performed off-line under standardized conditions prior to quantification of Tyr formation by CE with UV detection. Enzyme assays were performed by first mixing together Phe (1 mM), catalase (100 nM) and PAH (0.25 μM/subunit) in a reaction buffer (20 mM HEPES and 200 mM NaCl, pH 7.0) that were equilibrated at 25° C. for 4 min. Then, ferrous (Fe^2+) ammonium sulfate (100 μM) was added to the solution for 1 min and the reaction was subsequently initiated by addition of BH4 ([…]) with DTT (5 mM) using a total volume of 100 μL. The reaction mixture was then vortexed for 60 s followed by sonication for 2 min prior to centrifugation for 10 s at 4 g and storage in a refrigerator (+4° C.). An aliquot (20 μL) was withdrawn from the quenched enzyme reaction and placed in a micro vial containing Me-Tyr as IS (100 μM) prior to CE analysis. The stability of the quenched enzyme reaction was confirmed by intermittent analysis of PAH activity over 6 h at room temperature, and no significant changes in the Tyr/IS or Phe/Tyr response ratio were measured. Enzymatic reactions were performed for both WT-PAH and two PAH mutants by pre-equilibrating each ligand for 10 min prior to addition of ferrous ion and BH4/DDT as described in enzyme reaction protocol in order to assess for ligand-induced PAH inhibition or activation.
(§3) For instance, a recovery of 50% of residual enzyme activity was achieved without ligand when PAH was incubated in 8.0 M urea after its dilution to 0.5 M urea to trigger protein refolding. In order to further reduce enzyme reversibility, the recovery of PAH activity was subsequently assessed when it was incubated using 6.0 M GndCl for 10 min and subsequently diluted to 0.5 M GndCl in the presence or absence of screen-positive ligands (20 μM) in enzyme reaction buffer with PAH activity measurements performed by CE as described previously. […] Two lead compounds and several analogs of SA were subsequently tested using two different mutants of PAH (I65T and R261Q) without chemical denaturants after the two-tiered screening.

R261Q PAH mutant = biological target: T2, R261Q PAH mutant (Homo sapiens, UniProt P00439, R261Q); assay: as above; type: biochemical; details: ligand 20 μM, no denaturant
T2 construct: made in house; the paragraph itself says 'eukaryotic cell cultures' (pMAL vector)
T2 sequence (P00439 1-452 R261Q): T1 sequence (P00439 1-452 I65T) with T65I, R261Q
Description: as §1, §2, §3

PAH = biological target: T3, PAH (Homo sapiens, UniProt P00439); details: read-out: Ki (weak competitive inhibitor to PAH); cited from earlier work
T3 sequence (P00439 1-452): T1 sequence (P00439 1-452 I65T) with T65I

activity enhancement of I65T PAH mutant (I65T PAH mutant; listed as HI) [fold]	activity enhancement of R261Q PAH mutant (R261Q PAH mutant; listed as HI) [fold]	activity enhancement of I65T PAH mutant (I65T PAH mutant) [fold]	activity enhancement of R261Q PAH mutant (R261Q PAH mutant) [fold]	Structure (SMILES)	pKi (PAH)
~1.5	~1.5	–	–	Nc1c(-c2ccc3ccccc3n2)c2ccc([N+](=O)[O-])cc2c(=O)n1Cc1ccccc1 [compound III, 3-amino-2-benzyl-7-nitro-4-(2-quinolyl)-1,2-dihydroisoquinolin-1-one]	–
–	–	~1.5	~1.5	Cc1ccnc(-n2c(=S)[nH]c3sc(C)c(C)c3c2=O)c1 [compound IV, 5,6-dimethyl-3-(4-methyl-2-pyridinyl)-2-thioxo-2,3-dihydrothieno[2,3-d] pyrimidin-4(1H)-one]	3.70
